Assay results: publication PMC10851555, “Safinamide, an inhibitor of monoamine oxidase, modulates the magnitude, gating, and hysteresis of sodium ion current” (BMC Pharmacology & Toxicology, 2024)

Test system: voltage-gated sodium ion (NaV) channels in pituitary GH3 cells
Assay: Whole-cell INa(T) decay during a 1-s, 20-Hz train of depolarizing pulses in GH3 cells
Assay type: cell-based, rat
Conditions: control 65 ± 4 ms, n = 7
Procedure: Shortly before experiments, GH3 was carefully suspended in normal Tyrode’s solution at room temperature (20–25 °C). A few drops of the suspension containing cell clumps were immediately added to a custom-built chamber on the stage of an inverted Diaphot-200 microscope (Nikon, Tokyo, Japan). Pipettes were pulled from Kimax-51 soft-glass capillaries (#34500-99; Kimble, Vineland, NJ) by using a Narishige PP-830 Vertical Puller (Tokyo, Japan), and their tips were fire-polished using a microforge (MF-83, Narishige). During the measurements, an electrode with a tip resistance of 2–4 MΩ, which was tightly inserted into a holder, was maneuvered using a WR-98 micromanipulator (Narishige). Patch-clamp experiments were performed in the voltage-clamp mode with either cell-attached or whole-cell configuration (rupturing of the membrane patch after GΩ formation) by using a RK-400 Patch-Clamp Amplifier (Bio-Logic, Claix, France) connected to a laptop. Shortly before GΩ formation, potential correction was performed for a liquid junction potential, which developed at the electrode’s tip because of the difference in the compositions of the internal and bath solutions.
SAF is efficacious as an add-on therapy following subthalamic nucleus deep brain stimulation in patients with Parkinson’s disease. Therefore, we investigated whether SAF could modify the inactivation of currents induced by a train of depolarizing stimuli. The test cells were maintained at −80 mV and subjected to repetitive depolarization to −10 mV (40 ms per pulse; rate of 20 Hz; duration of 1 s). Similar to the findings of relevant studies, during the control period (the absence of SAF), INa(T) inactivation was noticed to be induced by 1 s of repetitive depolarization stimuli (−80 to −10 mV) with a decaying time constant of 65 ± 4 ms (n = 7; Fig. 6A, 6B and 6C). […] In the presence of 3 and 10 μM SAF, the exponential time course of INa(T) induced by the same train of depolarizing pulses was longer at 107 ± 5 ms (n = 7, P < 0.05) and 124 ± 6 ms (n = 7, P < 0.05), respectively. Furthermore, as MGB and ranolazine have been reported to suppress the amplitude of INa effectively, we added ranolazine (Ran; 10 μM) and mirogabalin (MGB; 10 μM) separately in the presence of 10 μM SAF. […] The application of Ran (10 μM) or MGB (10 μM) alone decreased the decaying time constant of INa(T) during the same train of depolarizing pulses to 39 ± 4 ms (n = 7, P < 0.05) or 42 ± 4 ms (n = 7, P < 0.05), respectively, from a control value of 66 ± 5 ms (n = 7). Thus, in addition to increasing the magnitude of INa(T), SAF prominently affects the decaying of INa(T) subjected to a 1-s train of depolarizing pulses.
Fig. 6 Effect of SAF on INa(T) decay induced by a train of depolarizing pulses in GH3 cells. The train of pulses comprised twenty 40-ms pulses (voltage increased to −10 mV) with 10-ms intervals at −80 mV for a total duration of 1 s. (A) Current traces during the control period (a, blue) and during exposure to 10 μM SAF (b, red). The voltage-clamp protocol used is indicated atop the current traces. In panel A, the third graphs (blue and red) from the top are the expanded forms of the second graphs (brown dashed boxes). (B) The relative amplitude of INa(T) versus pulse train duration in the absence (blue open circles) and presence (red open squares) of 10 μM SAF (mean ± standard error of the mean; n = 7 for each point). The INa(T) amplitudes were normalized by dividing the current amplitudes at the end of each pulse-train stimulation by those obtained at the beginning of the pulse train stimulation. The gray continuous lines on which the data points are overlaid are reliably fitted with a single exponential.

C[C@H](NCc1ccc(OCc2cccc(F)c2)cc1)C(N)=O [SAF, (S)-2-((4-((3-fluorobenzyl)oxy)benzyl)amino)propanamide]
decaying time constant of INa(T) during train of depolarizing pulses (3 μM SAF): 107 ± 5 ms
decaying time constant of INa(T) during train of depolarizing pulses (10 μM SAF): 124 ± 6 ms
